Laboratory results: publication PMC13266999, “Designing Antibiotics with Inherent Resistance to Efflux as a Strategy to Revive Discovery against Multidrug-Resistant Pathogens” (Journal of Medicinal Chemistry, 2026)
Converted amounts (≈) assume the structure as drawn. Read-outs that look alike come from different tables or passages of the source.

Legend:
A. baumannii strain AYE = experiment: Time-kill assay; format: cell-based; settings: 4 × MIC
Procedure: Time-kill assays were performed as defined previously.

[1] = tested on: major human CYP isoforms other than CYP3A (midazolam substrate); experiment: Cytochrome P450 inhibition panel; settings: human recombinant CYP enzymes in microsomal preparations
Procedure: Cytochrome P450 inhibition was assessed in vitro using human recombinant enzymes in microsomal preparations. […] Enzyme activity was quantified by monitoring formation of substrate-specific metabolites, and percent inhibition was calculated relative to vehicle control.

[2] = male, ICR, mouse, in vivo, po
[3] = tested on: S. oralis, S. mutans, S. salivarius, S. sanguinis, and S. pyogenes; experiment: MIC, extended Gram-positive panel (grouped species); format: cell-based, Streptococcus spp.
Procedure: (§1) All bacteria were maintained on tryptic soy agar (TSA), except Streptococcus spp., which were maintained on Columbia agar plates containing 5% horse blood. All bacterial assays were carried out in tryptic soy broth (TSB), except for Streptococcus spp. which were grown in cation-adjusted Mueller Hinton broth containing 2.5% lysed horse blood. Bacteria were grown to stationary phase in liquid culture overnight, with shaking at 200 rpm, before being back diluted to the relevant starting concentration for each assay below. MICs were measured by the microbroth dilution method. […] Absorbance at OD600 was read on a CLARIOstar spectrophotometer (BMG Labtech) and the MIC was defined as the minimum concentration of compound where no visible growth was detected. The compounds were prepared as a DMSO stock and equivalent concentrations of DMSO had no effect on bacterial growth. MICs were also performed in the presence of the outer membrane permeator, polymyxin b nonapeptide (PMBN) following the same MIC method but with the following variation. The 2-fold dilution series of compound was prepared as above, then 50 μL of PMBN at a final concentration of 30 μg/mL was added to relevant wells, while 50 μL/well of blank media was added to the remaining wells. Bacteria were then added at 50 μL/well for a starting concentration as above. […] The MICs were read and defined as above. […]

E. faecium = experiment: MIC (microbroth dilution); format: cell-based, Enterococcus faecium; settings: for MIC: Enterococcus faecium
Procedure: (§2) All bacteria were maintained on tryptic soy agar (TSA), except Streptococcus spp., which were maintained on Columbia agar plates containing 5% horse blood. All bacterial assays were carried out in tryptic soy broth (TSB), except for Streptococcus spp. which were grown in cation-adjusted Mueller Hinton broth containing 2.5% lysed horse blood. Bacteria were grown to stationary phase in liquid culture overnight, with shaking at 200 rpm, before being back diluted to the relevant starting concentration for each assay below. MICs were measured by the microbroth dilution method. […] Absorbance at OD600 was read on a CLARIOstar spectrophotometer (BMG Labtech) and the MIC was defined as the minimum concentration of compound where no visible growth was detected. The compounds were prepared as a DMSO stock and equivalent concentrations of DMSO had no effect on bacterial growth. MICs were also performed in the presence of the outer membrane permeator, polymyxin b nonapeptide (PMBN) following the same MIC method but with the following variation. The 2-fold dilution series of compound was prepared as above, then 50 μL of PMBN at a final concentration of 30 μg/mL was added to relevant wells, while 50 μL/well of blank media was added to the remaining wells. Bacteria were then added at 50 μL/well for a starting concentration as above. Thirty μg/mL of PMBN had no effect on bacterial growth. The MICs were read and defined as above. All animal procedures were performed by the contract research organization Pharmacology Discovery Services Taiwan in accordance with the Guide for the Care and Use of Laboratory Animals. The procedures were approved by the Institutional Ethics Committee of Pharmacology Discovery Services Taiwan, Ltd. (approval no. AB127662), in compliance with animal welfare legislation in Taiwan.

S. haemolyticus = experiment: MIC (microbroth dilution); format: cell-based, Staphylococcus haemolyticus; settings: Staphylococcus haemolyticus, ATCC29970; ATCC 29970; read-out: MIC
Procedure: as §2

E. faecalis = experiment: MIC (microbroth dilution); format: cell-based, Enterococcus faecalis; settings: for MIC: Enterococcus faecalis
Procedure: as §2, with “All bacterial assays were carried out in tryptic soy broth (TSB), except for Streptococcus spp. which were grown in cation-adjusted Mueller Hinton broth containing 2.5% lysed horse blood.” left out, “The compounds were prepared as a DMSO stock and equivalent concentrations of DMSO had no effect on bacterial growth.” left out, “Thirty μg/mL of PMBN had no effect on bacterial growth.” left out

[4] = tested on: Staphylococcus epidermidis, S. hemolyticus and S. saprophyticus; experiment: MIC, extended Gram-positive panel (grouped species); format: cell-based, Staphylococcus spp.
Procedure: as §1

[5] = reported values; cited from earlier work
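Throughout, for Response (death/test): male ICR mice given oral doses under a stepwise escalation scheme to find the highest tolerated dose.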

C[C@H]1COc2c(N3CC[C@@H](Nc4ncccn4)C3)c(F)cc3c(=O)c(C(=O)O)cn1c23 [Compound 46, (S)-9-Fluoro-3-methyl-7-oxo-10-((R)-3-(pyrimidin-2-ylamino)pyrrolidin-1-yl)-2,3-dihydro-7H-[1,4]oxazino[2,3,4-ij]quinoline-6-carboxylic acid]
time-kill profile (A. baumannii strain AYE): rapid bactericidal activity | inhibition at 10 µM [1]: ≤ 13% | Response (death/test) ([2]; 100 mg/kg): 0/3 | Response (death/test) ([2]; 100 mg/kg, 24 h): 0/3 | Response (death/test) ([2]; 100 mg/kg, 48 h): 0/3 | Response (death/test) ([2]; 100 mg/kg, 72 h): 0/3 | Response (death/test) ([2]; 200 mg/kg): 0/3 | Response (death/test) ([2]; 400 mg/kg): 0/3

Cc1cc(C)nc(N[C@@H]2CCN(c3c(F)cc4c(=O)c(C(=O)O)cn5c4c3OC[C@@H]5C)C2)n1 [Compound 50, (S)-10-((R)-3-((4,6-Dimethylpyrimidin-2-yl)amino)pyrrolidin-1-yl)-9-fluoro-3-methyl-7-oxo-2,3-dihydro-7H-[1,4]oxazino[2,3,4-ij]quinoline-6-carboxylic acid]
MIC range [3]: 0.03 to 0.25 mg/L | MIC (E. faecium; ATCC19434, ATCC 19434, read-out: MIC): 1 mg/L (≈ 2.21 µM) | MIC (E. faecium; ATCC700221, VanA (ATCC 700221), read-out: MIC): 0.5 mg/L (≈ 1.1 µM) | MIC (E. faecium; BAA2320, VanA (BAA-2320), read-out: MIC): 1 mg/L (≈ 2.21 µM) | MIC (E. faecium; CCUG56431, VanB (CCUG 56431), read-out: MIC): 0.25 mg/L (≈ 0.551 µM) | MIC (E. faecium; CCUG56858): 0.125 mg/L (≈ 0.276 µM) | MIC (E. faecium; CCUG58354, VanD (CCUG 58354), read-out: MIC): 0.25 mg/L (≈ 0.551 µM) | MIC (E. faecium; CCUG59167, VanA (TUH44-29; CCUG 59167), read-out: MIC): 1 mg/L (≈ 2.21 µM) | MIC range (E. faecium; including VanA, VanB, and VanD phenotypes): 0.125 to 1 mg/L | MIC (S. haemolyticus): 0.03 mg/L (≈ 0.0662 µM) | MIC (E. faecalis; ATCC29212, ATCC 29212, read-out: MIC): 0.25 mg/L (≈ 0.551 µM) | MIC (E. faecalis; ATCC51299): 0.125 mg/L (≈ 0.276 µM) | MIC (E. faecalis; ATCC51575, VanB (ATCC 51575), read-out: MIC): 0.25 mg/L (≈ 0.551 µM) | MIC (E. faecalis; ATCC700802): 0.125 mg/L (≈ 0.276 µM) | MIC (E. faecalis; CCUG47775, VanA (CCUG 47775), read-out: MIC): 0.5 mg/L (≈ 1.1 µM) | MIC range (E. faecalis; clinical isolates, Table S11B): 0.125 to 0.5 mg/L | MIC range [4]: 0.03125 to 0.06 mg/L

C[C@H]1COc2c(N3CCN(C)CC3)c(F)cc3c(=O)c(C(=O)O)cn1c23 [Levofloxacin, (S)-9-Fluoro-3-methyl-10-(4-methylpiperazin-1-yl)-7-oxo-2,3-dihydro-7H-[1,4]oxazino[2,3,4-ij]quinoline-6-carboxylic acid, reference compound]
plasma protein binding [5]: 38%
